Columns and labels:
[1] = Acute oral toxicity (LD50) in rats; conditions: rat, in vivo, oral administration
[2] = system: release of histamine induced by passive peritoneal anaphylaxis (PPA) reaction; assay: Passive Peritoneal Anaphylaxis (PPA) test: inhibition of histamine release; assay type: in vivo, Sprague-Dawley male rats; conditions: ip, 5 min; rat PPA; 1 mg/kg intraperitoneally 30 seconds before egg albumin
Experimental: (§1) 1 mg of egg albumin dissolved in 0.2 ml of saline was intramuscularly administered to each of Sprague-Dawley male rats weighing 300 to 350 g (Charles River Japan Inc.), and then 1 ml of a suspension of sterilized Bordetella pertussis (2×10^10 cells) in saline was administered intraperitoneally to the rats. After 14 days, blood was drawn from the rats to obtain an antiserum.
(§2) The test was conducted according to the method of Orange et al [Orange, R. P., Stechschulte, D. J., Austen, K. F., J. Immunol., 105, pp1087-1095 (1970)]. Sprague-Dawley male rats weighing 250 to 400 g (5 rats per group) were passively sensitized by administering 5 ml of 5-fold dilution antiserum (prepared by diluting the above antiserum with saline). 2 hours later, 5 ml of an egg albumin solution prepared by dissolving 2 mg of egg albumin in phosphate buffered saline containing 0.9 mM of calcium chloride was administered intraperitoneally to the rats. After 5 minutes, the rats were sacrificed by decapitation, and peritoneal fluid was pooled and centrifuged at 300×G at 4° C. for 10 minutes. Then, amounts of SRS-A and histamine in the supernatant were determined.
The quantitative determination of histamine was carried out according to the method of Shore et al [Shore, P. A., Bunkhalter, A. H., Cohn, V. H., J. Pharmacol. Exp. Ther., 127, pp182-186 (1959)], and the total released amount of histamine per rat (μg/rat) was calculated.
(§3) In this test, the test compound of this invention was administered as follows. 2 mg of a test compound was dissolved in 10 ml of phosphate buffered saline containing 0.9 mM of calcium chloride, an equimolar amount of sodium hydroxide to test compound, 2% of dimethyl sulfoxide and 2% of ethanol, and the solution was administered intraperitoneally to the rats at a dose of 1 mg/kg 30 seconds before the injection of egg albumin for inducing PPA. For a control group, the same solution without test compound and sodium hydroxide was administered.
(§4) The inhibitory activity on release of histamine and SRS-A by the PPA reaction in the treated group was calculated by the following formula: [formula] wherein: a represents a mean value of released amount in the control group.
(§5) b represents a mean value of released amount in the treated group.
(§6) c represents a mean value of spontaneously released amount.

[3] = system: release of SRS-A induced by passive peritoneal anaphylaxis (PPA) reaction; assay: Passive Peritoneal Anaphylaxis (PPA) test: inhibition of SRS-A release; assay type: in vivo, Sprague-Dawley male rats; conditions: ip, 5 min; rat PPA; 1 mg/kg intraperitoneally 30 seconds before egg albumin
Experimental: as §1, §2
The quantitative determination of SRS-A was carried out according to the method of Stechschulte et al [Stechschulte, D. J., Auste, K. F., Bloch, K. J., J. Exp. Med., 125, pp127-147 (1967)] using a guinea pig ileum specimen in the presence of mepyramine and atropine. The amount of SRS-A was expressed in terms of unit, i.e., one unit of SRS-A activity was defined as the concentration required to produce a contraction of guinea pig ileum equal in amplitude to that produced by 5 ng of histamine, and the total released amount of SRS-A per rat (unit/rat) was calculated.
as §3, §4, §5, §6

[4] = system: passive cutaneous anaphylaxis (PCA) reaction; assay: Passive cutaneous anaphylaxis (PCA) test; assay type: in vivo, Sprague-Dowley male rats; conditions: 0.5 h; rat PCA; 20 mg/kg in 0.5% CMC, oral, 30 minutes before antigen challenge
Experimental: as §1
In this test, the antiserum described in Test Example 1 was used after it was diluted with saline so as to provide a blue spot having a diameter of about 10 mm in the following control group.
Sprague-Dowley male rats weighing about 180 g (5 rats per group) were sensitized by injecting 0.05 ml of the diluted antiserum into the shaved dorsal skin. 48 hours later, the animals were challenged with 1 ml of saline containing 5 mg of egg albumin and 5 mg of Evans blue dye administered via a tail vein. 30 minutes later, the rats were sacrificed by decapitation. The dorsal skin was removed, and the long and short axis of the each wheal was measured.
In this test, the test compound was administered as follows. 20 mg of a test compound was suspended in a 0.5% CMC aqueous solution, and the suspension was administered to each of the rats in an amount of 20 mg/kg 30 minutes before the antigen challenge. For a control group, only a 0.5% CMC solution was administered.
The inhibitory activity on the PCA reaction in the treated group was calculated by the following formula: [formula] wherein: a represents a mean value of blue spot area in the control group.
b represents a mean value of blue spot area in the treated group.

Row | SMILES | LD50 [1] | inhibition in vivo at 1 mg/kg [2] | inhibition in vivo at 1 mg/kg [3] | inhibition in vivo at 20 mg/kg [4]
1 | O=c1c2[nH]nnc2nc2sc(CCc3cccc(Cl)c3)nn12 [Example 54] | > 2000 mg/kg | – | – | –
2 | O=c1c2[nH]nnc2nc2sc(-c3ccco3)nn12 [Example 17] | > 2000 mg/kg | 82% | 55% | 50%
3 | CC(C)(C)c1ccc(-c2nn3c(=O)c4[nH]nnc4nc3s2)o1 [Example 20] | > 2000 mg/kg | – | – | –
4 | O=c1c2[nH]nnc2nc2sc(CCc3ccc(F)cc3)nn12 [Example 53] | > 2000 mg/kg | – | – | –
5 | O=c1c2[nH]nnc2nc2sc(CC(c3ccccc3)c3ccccc3)nn12 [Example 57] | – | 86% | 61% | –
6 | Cc1cccc(CCc2nn3c(=O)c4[nH]nnc4nc3s2)c1 [Example 49] | > 2000 mg/kg | – | – | –
7 | O=c1c2[nH]nnc2nc2sc(-c3ccc(C4CCCCC4)cc3)cn12 [Example 7] | – | – | – | 40%
8 | O=c1c2[nH]nnc2nc2sc(-c3cccs3)cn12 [Example 75] | – | – | – | 32%
9 | O=c1c2[nH]nnc2nc2sc(-c3cccs3)nn12 [Example 23] | > 2000 mg/kg | 84% | 51% | 31%
10 | O=c1c2[nH]nnc2nc2sc(-c3ccc4c(c3)OCO4)nn12 [Example 12] | – | 87% | 52% | 36%
11 | O=c1c2[nH]nnc2nc2sc(C3COc4ccccc4C3)nn12 (centres unmarked) [Example 39] | – | – | – | 38%
12 | O=c1c2[nH]nnc2nc2sc(-c3ccccc3)nn12 [Example 47] | > 2000 mg/kg | – | – | 38%
13 | Cc1ccc(-c2nn3c(=O)c4[nH]nnc4nc3s2)o1 [Example 18] | > 2000 mg/kg | – | – | –
14 | O=c1c2[nH]nnc2nc2sc(Cc3ccc(F)cc3)nn12 [Example 45] | – | – | – | 57%
15 | O=c1c2[nH]nnc2nc2sc(COc3ccc(F)cc3)nn12 [Example 66] | – | 89% | 47% | –
16 | CC(C)(C)c1cc(-c2nn3c(=O)c4[nH]nnc4nc3s2)cs1 [Example 29] | – | – | – | 39%
17 | O=c1c2[nH]nnc2nc2sc(Cc3ccccc3)nn12 [Example 42] | > 2000 mg/kg | 99% | 54% | 48%
18 | O=c1c2[nH]nnc2nc2sc(-c3cccc(F)c3)nn12 [Example 13] | – | – | – | 34%
19 | O=c1c2[nH]nnc2nc2sc(-c3ccsc3)nn12 [Example 24] | – | – | – | 45%
20 | Cc1ccc(CCc2nn3c(=O)c4[nH]nnc4nc3s2)cc1 [Example 50] | > 2000 mg/kg | – | – | –
21 | Cc1ccccc1CCc1nn2c(=O)c3[nH]nnc3nc2s1 [Example 48] | > 2000 mg/kg | – | – | –
22 | CCc1ccc(-c2nn3c(=O)c4[nH]nnc4nc3s2)s1 [Example 27] | – | 81% | 63% | –
23 | CC(C)(C)c1ccc(-c2nn3c(=O)c4[nH]nnc4nc3s2)cc1 [Example 1, 6-(4-tert-Butylphenyl)-[1,3,4]thiadiazolo[3,2-a][1,2,3]triazolo[4,5-d]pyrimidin-9(1H)-one] | > 2000 mg/kg | 83% | 64% | 46%
24 | O=c1c2[nH]nnc2nc2sc(-c3ccc(Cl)o3)nn12 [Example 21] | > 2000 mg/kg | – | – | 35%

Row | SMILES | LD50 [1] | inhibition in vivo at 1 mg/kg [2] | inhibition in vivo at 1 mg/kg [3] | inhibition in vivo at 20 mg/kg [4]
25 | CC(C)(C)c1ccc(-c2cn3c(=O)c4[nH]nnc4nc3s2)cc1 [Example 6] | – | – | – | 36%
26 | CC(C)(C)c1ccc(-c2nn3c(=O)c4[nH]nnc4nc3s2)s1 [Example 28] | – | – | – | 34%
27 | O=c1c2[nH]nnc2nc2sc(-c3cc4c(s3)CCC4)nn12 [Example 33] | – | 82% | 70% | 47%
28 | O=c1c2[nH]nnc2nc2sc(C3COc4ccccc4O3)nn12 (centres unmarked) [Example 41] | – | 91% | 62% | –
29 | O=c1c2[nH]nnc2nc2sc(COc3ccccc3)nn12 [Example 64] | – | – | – | 33%
30 | CCc1sc(-c2nn3c(=O)c4[nH]nnc4nc3s2)cc1C [Example 31] | – | – | – | 32%
31 | CC1CCc2sc(-c3nn4c(=O)c5[nH]nnc5nc4s3)cc2C1 (centres unmarked) [Example 36] | – | 83% | 41% | 40%
32 | COc1ccc(-c2nn3c(=O)c4[nH]nnc4nc3s2)cc1 [Example 3] | – | 93% | 42% | –
33 | O=c1c2[nH]nnc2nc2sc(-c3ccc(Cl)s3)nn12 [Example 32] | – | 87% | 63% | 35%
34 | O=c1c2[nH]nnc2nc2sc(C=Cc3ccccc3)nn12 [Example 62] | – | 94% | 55% | –
35 | O=c1c2[nH]nnc2nc2sc(CCc3ccccc3)nn12 [Example 9, 6-(2-Phenylethyl)-[1,3,4]thiadiazolo[3,2-a][1,2,3]triazolo[4,5-d]pyrimidin-9(1H)-one] | > 2000 mg/kg | 80% | 50% | 52%
36 | O=c1c2[nH]nnc2nc2sc(CCc3ccc(Cl)cc3)nn12 [Example 55] | > 2000 mg/kg | – | – | –
37 | O=c1c2[nH]nnc2nc2sc(-c3ccc4c(c3)CCCC4)nn12 [Example 83] | – | – | – | 44%
38 | CC(C)c1ccc(-c2nn3c(=O)c4[nH]nnc4nc3s2)cc1 [Example 2] | – | 85% | 52% | –
39 | COc1cccc(-c2nn3c(=O)c4[nH]nnc4nc3s2)c1OC [Example 11] | – | 89% | 66% | 32%
40 | O=c1c2[nH]nnc2nc2sc(-c3ccccc3)cn12 [Example 8] | – | 83% | 37% | –
41 | CC(C)(C)c1ccc(Cc2nn3c(=O)c4[nH]nnc4nc3s2)cc1 [Example 43] | – | 75% | 59% | –
42 | COc1ccc(-c2cn3c(=O)c4[nH]nnc4nc3s2)cc1Cl [Example 73] | – | – | – | 48%
43 | CC(C)(C)c1ccc(OCCc2nn3c(=O)c4[nH]nnc4nc3s2)cc1 [Example 69] | – | – | – | 34%
44 | COc1ccc(Cc2nn3c(=O)c4[nH]nnc4nc3s2)cc1 [Example 44] | – | 81% | 70% | –
45 | Cc1ccc(-c2nn3c(=O)c4[nH]nnc4nc3s2)cc1 [Example 80, 6-(4-Methylphenyl)-[1,3,4]thiadiazolo[3,2-a][1,2,3]triazolo[4,5-d]pyrimidin-9(1H)-one monohydrate] | – | 91% | 42% | 31%
46 | O=c1c2[nH]nnc2nc2sc(-c3cc4c(s3)CCCC4)nn12 [Example 35] | – | 88% | 45% | 45%
47 | CC(C)(C)c1cccc(-c2nn3c(=O)c4[nH]nnc4nc3s2)c1 [Example 82] | – | 82% | 52% | –
